{"source": "patent US8580318B2", "about": "“Natural water soluble extracts for the inhibition of alpha-1-adrenergic receptors” (Naturamed Ltd., priority 2007, dated 2013)", "origin": "cited, not measured here", "test_system": "serum prostate specific antigen (PSA)", "conditions": "patients with BPH"}
{"smiles": "CC(C)(C)NC(=O)[C@H]1CC[C@H]2[C@@H]3CC[C@H]4NC(=O)C=C[C@]4(C)[C@H]3CC[C@]12C", "note": "[finasteride, Finasteride]", "values": [{"measurement": "decrease in serum prostate specific antigen (PSA) levels", "result": "approximately 50%"}]}
